Measurements reported in patent publication US20110319484A1, “NEUROPROTECTIVE COMPOUNDS” (Parque Tecnologico de Ciencias de la Salud, priority 2009, published 2011).
Where a SMILES comes first, the peptide text is derived from it. The star is where a group is joined. Cbz = O=C(OCc1ccccc1)*; CH2F = FC*

Key:
[1] = test system: human neuroblastoma SK-N-MC cells; assay: Inhibition of ROS production induced by xanthine/xanthine oxidase (H2DCFDA probe, LDH-normalized); assay type: cell-based; details: XXO 10 μM-100 mU/ml, AA 100 μM, positive control
Experimental: The assay was performed on human neuroblastoma SK-N-MC cells in culture from the American Type Culture Collection (ATCC) (HTB-10), in all cases strict rules of sterility were followed and the manipulation was performed in class II biological safety cabinets following European standard EN 12469. The cells were maintained in Minimum Essential Medium Eagle (MEM) culture medium supplemented with 1 mM sodium pyruvate, 2 mM L-glutamine, 0.1 mM non-essential amino acids, 0.05 mg/ml gentamicin and 10% fetal bovine serum.
The inhibition by the NST0003 compound [(1S,3R,7S,8S,8aR)-1,2,3,7,8,8a-hexahydro-3,7-dimethyl-8-[2-[(2R,4R)-tetrahydro-4-hydroxy-6-oxo-2H-pyran-2-yl]ethyl-1-naphthalenyl propanoate] on the production of reactive oxygen species (ROS) in the SK-N-MC cells, was analyzed. […]
The cells were incubated (at 37° C. and 5% CO2) with these treatments for 3 h, after which time they were washed with HKRB buffer (20 mM HEPES, 103 mM NaCl, 4.77 mM KCl, 0.5 mM CaCl2, 1.2 mM MgCl2, 1.2 mM KH2PO4, 25 mM […], 15 mM glucose; at pH 7.3) after which the 2′,7′-dichlorodihydrofluorescein diacetate (H2DCFDA) probe was added at 30 μM diluted in HKRB buffer and it was incubated for another 2 hours in the same conditions. The reading of the plate was taken in a fluorometer at the conditions of 485 nm for excitation and 538 nm for emission. […]

SK-N-MC cells = assay: Inhibition of camptothecin-induced apoptosis by flow cytometry (propidium iodide, sub-G1); assay type: cell-based, human; details: camptothecin 50 μM, 6 h, Z-VAD-fmk 50 μM
Experimental: To that end, the inhibition caused by the NST0005 compound of apoptosis caused by the treatment with camptothecin (Campt) was analyzed. The SK-N-MC cells, not exceeding 15 passages, were seeded on 6-well plates treated for adherent cells with a cell concentration of 8×10^5 cells/well; 2 wells of the plate were seeded for each condition of the assay.
After 24 h of cell incubation at 37° C. and 5% CO2 the cell treatments were performed with 2 ml of total volume for the following conditions: (i), control (culture medium); (ii), camptothecin [50 μM]; (iii) camptothecin [50 μM] and Z-VAD-fmk [50 μM] (Alexis), as positive control of inhibition; and (iv), 50 μM camptothecin with NST0005 at different concentrations [4, 10, 40 and 100 μg/ml].
The cells were incubated (at 37° C. and 5% CO2) with these treatments for 6 h, after which time they were pooled together with their culture medium and centrifuged at 300×g for 5 minutes. The medium was removed, a washing was performed with phosphate buffered saline (PBS) and they were fixed for 2 minutes with 500 μl of 70% ethanol at −20° C. […] After this time, they were analyzed by flow cytometry, comparing the fluorescence of the propidium iodine against the amount of DNA. The percentage of apoptosis was measured on the sub-G1 region of each of the conditions. […]

[2] = test system: caspase 3/7 activation in SK-N-MC cells; assay: Inhibition of camptothecin-induced caspase 3/7 activation (Apo-ONE kit); assay type: cell-based, human; details: camptothecin 50 μM, 6 h, Z-VAD-fmk 50 μM
Experimental: To that end, the inhibition caused by (1S,3R,7S,8S,8aR)-1,2,3,7,8,8a-hexahydro-3,7-dimethyl-8-[2-[(2R,4R)-tetrahydro-4-hydroxy-6-oxo-2H-pyran-2-yl]ethyl-1-naphthalenyl 2,2-dimethylpropanoate (NST0005) of apoptosis caused by the treatment with camptothecin (Campt) on the SK-N-MC cells in culture was analyzed following the working conditions specified in section 3.1. Apoptosis can be quantified by measuring effector caspase activation. Caspases (proteins belonging to the cysteine-protease group) mediate the cleavage of a series of proteins triggering the signaling cascade which leads cells to apoptosis. […] The active cellular caspases 3 or 7 cause the cleavage of the substrate, emitting fluorescence which is read by means of a fluorometer.
The effect of the pretreatment of the NST0005 compound at 40 and 100 μg/ml on caspase 3/7 activation caused by 50 μM of camptothecin (Campt) in the SK-N-MC cells was thus analyzed. […]
The cells were incubated (at 37° C. and 5% CO2) with these treatments for 6 h, after which time the lysis buffer and the substrate rhodamine 110 were added at the concentrations specified by the manufacturer; they were incubated at room temperature for 30 minutes and the cells were then frozen at −20° C. overnight. They were thawed the next day and the reading of the plate was taken in a fluorometer at 499 nm for excitation and 521 nm for emission.

## O=C1O[C@H]([C@@H](O)CO)C(O)=C1O [AA, ascorbic acid, reference compound]
[1]
  inhibition at 100 µM: 80%

## COC(=O)C[C@H](NC(=O)[C@H](C)NC(=O)[C@@H](NC(=O)OCc1ccccc1)C(C)C)C(=O)CF [Z-VAD-fmk, reference compound] (Cbz-Val-Ala-Asp(OMe)-CH2F)
SK-N-MC cells
  inhibition of apoptosis caused by camptothecin (flow cytometry): 30%
[2]
  inhibition of caspase 3/7 activation: completely inhibited
